ChEMBL document CHEMBL1127616, “Synthesis, structural characterization, and antitumor properties of a novel class of large-ring platinum(II) chelate complexes incorporating the cis-1,4-diaminocyclohexane ligand in a unique locked boat conformation” (J Med Chem, 1994)

Experiments:
Type in all cases: functional, cell-based
Conditions in all cases: Mus musculus
[1] = system: L1210; experiment: Tested for in vitro growth inhibition against murine leukemia cell L1210DACH
[2] = system: L1210; experiment: Tested for in vitro growth inhibition against murine leukemia cell L1210S
[3] = system: L1210; experiment: Tested for in vitro growth inhibition against murine leukemia cell L1210PtR4
[4] = system: L1210; experiment: Tested for in vitro growth inhibition against murine leukemia cell L1210DDP5
[5] = system: P388; experiment: Tested for in vitro growth inhibition against murine leukemia cell P388S
[6] = system: P388; experiment: Tested for in vitro growth inhibition against murine leukemia cell P388Pt4

Row | Substance | ID50 [1] [µg/mL] | ID50 [2] [µg/mL] | ID50 [3] [µg/mL] | ID50 [4] [µg/mL] | ID50 [5] [µg/mL] | ID50 [6] [µg/mL]
1 | CI-973 | 1.8 | 0.76 | 2.6 | 3.9 | 0.1 | 1.62
2 | [Pt(1R,2R-dach)Cl2] | 4.57 | 0.059 | 0.161 | 0.164 | 0.077 | 0.83
